# Results taken from patent US11725036B2, “Modified lipidated relaxin B chain peptides and their therapeutic use” (Sanofi, priority 2018, dated 2023).
# Starred links: 1 amine or outer side, 2 acyl side, 3 side chain; linkers in the order of their positions; H or OH if unused. Non-standard residues stand in square brackets, D forms with d. Residues, ends and D or L forms follow the SMILES beside them. Groups on a side chain read outwards from the residue. *: point of attachment. X1 = CCCCCCCCCCCCCCCC(=O)N[C@@H](CCC(=O)N[C@@H](CCC(=O)N[C@@H](CCC(=O)NCCCOCCOCCOCCCNC(=O)CCC(=O)NCCCOCCOCCOCCCNC(=O)CCC(=O)NCCCOCCOCCOCCCN*)C(=O)O)C(=O)O)C(=O)O; γGlu = O=C(O)[C@H](CCC(=O)[*:2])N[*:1]; Palmitoyl = CCCCCCCCCCCCCCCC(=O)*; Suc = O=C(CCC(=O)[*:2])[*:1]; αMeK = C[C@](N)(CCCCN)C(=O)O; AEEA = NCCOCCOCC(=O)O; Aib = CC(C)(N)C(=O)O
# Biological target: T1, RXFP1 (Homo sapiens, UniProt Q9HBX9)
# T1 construct: OVCAR5 cells expressing endogenous RXFP1; endogenous in cells; host or cells: OVCAR5
# T1 sequence (Q9HBX9 1-757): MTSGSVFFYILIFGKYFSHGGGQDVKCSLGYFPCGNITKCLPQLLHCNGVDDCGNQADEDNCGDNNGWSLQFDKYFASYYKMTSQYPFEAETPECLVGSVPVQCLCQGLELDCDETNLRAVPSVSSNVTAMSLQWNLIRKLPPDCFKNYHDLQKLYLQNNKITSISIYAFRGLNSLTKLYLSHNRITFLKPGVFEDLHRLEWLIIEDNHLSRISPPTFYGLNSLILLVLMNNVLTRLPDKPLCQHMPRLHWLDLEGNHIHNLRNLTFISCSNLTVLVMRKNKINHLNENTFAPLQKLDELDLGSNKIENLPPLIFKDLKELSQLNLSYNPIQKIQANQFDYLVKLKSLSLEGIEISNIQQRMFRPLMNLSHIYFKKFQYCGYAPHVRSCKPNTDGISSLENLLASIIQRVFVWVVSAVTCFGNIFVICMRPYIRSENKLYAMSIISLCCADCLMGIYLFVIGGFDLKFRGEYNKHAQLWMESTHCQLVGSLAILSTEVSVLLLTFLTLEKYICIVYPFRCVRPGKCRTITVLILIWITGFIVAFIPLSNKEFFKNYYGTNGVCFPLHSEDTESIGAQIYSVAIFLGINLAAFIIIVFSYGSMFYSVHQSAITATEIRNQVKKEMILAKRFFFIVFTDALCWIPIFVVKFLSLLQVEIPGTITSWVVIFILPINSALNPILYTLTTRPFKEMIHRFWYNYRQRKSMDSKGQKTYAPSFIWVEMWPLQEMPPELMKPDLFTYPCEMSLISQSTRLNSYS
# Assay: OVCAR5 cAMP assay (HTRF)
# Format: cell-based
# Conditions: for EC50: OVCAR 5 cells expressing endogenous RXFP1, cAMP readout; for Emax: OVCAR 5 cells, maximal cAMP relative to H2-relaxin
# Excerpt: OVCAR5 cells expressing endogenous RXFP1 were used to test RXP1 agonist properties of peptides of the invention, and in particular of the peptides of sequence SEQ ID NO: 1-97.
# Since RXFP1 is a Gs coupled GPCR, cAMP was used as readout of RXFP1 activation.
# Isobutyl Methyl Xanthine (IBMX) was used to inhibit phosphodiesterase activity facilitating cAMP measurements. HTRF (Homogenous Time Resolved Fluorescence) technology was used to detect cAMP due to its great sensitivity.
# In summary, OVCAR5 were grown in regular medium (RPMI) containing 10% fetal calf serum (FCS) and 1% antibiotics (penicillin/streptomycin).
# Before the experiments, cells were detached with accutase and incubated for 40 minutes at 37° C. with 1 mM (3-isobutyl-1-methylxanthine) IBMX.
# Cells were then distributed in 384 black well plates containing increasing concentrations of the different peptides in a fix volume of medium (without FCS).
# After an incubation of 30 min at 37° C. in an humid incubator in 5% CO2, the reaction was stopped by adding a fixed volume of a solution containing a lysis buffer and cAMP-D2 (cAMP labeled with the dye d2) and the anti cAMP antibody linked to Europium and used for cAMP detection.
# Readout of the experiment were performed on a fluorimeter allowing HTRF measurement. Activation curves were generated by plotting the intracellular value of cAMP versus log 10 of the compound concentration.
# The 50% activation concentration (EC50) was calculated by nonlinear regression using the sigmoidal dose-response (variable slope) equation with Prism 5 software.
# Emax % was determined as the maximal intracellular value of cAMP for test compound (upper limit of cAMP vs concentration curve) divided by the maximal intracellular value of cAMP for H2-relaxin determined in the same test occasion multiplied by 100. Emax %=100×[cAMPtest cpd]/[cAMPH2-Rlx]
EC50 [nM],Emax [%],SMILES
1.5,99,CCCCCCCCCCCCCCCC(=O)N[C@@H](CCC(=O)N[C@@H](CCC(=O)N[C@@H](CCC(=O)NCCCOCCOCCOCCCNC(=O)CCC(=O)NCCCOCCOCCOCCCNC(=O)CCC(=O)NCCCOCCOCCOCCCNC(=O)CCC(=O)NCCCC[C@H](NC(=O)CNC(=O)[C@H](CCC(=O)O)NC(=O)C(C)(C)NC(=O)C(C)(C)NC(=O)[C@@H](NC(=O)[C@H](CCCCNC(C)=O)NC(=O)[C@H](C)NC(=O)[C@H](CCCNC(=N)N)NC(=O)[C@@H](NC(=O)[C@H](CCCCN)NC(=O)[C@H](CCC(=O)O)NC(=O)[C@H](CCCNC(=N)N)NC(=O)CNC(=O)[C@H](CCC(=O)O)NC(=O)[C@H](CC(C)C)NC(C)=O)C(C)C)[C@@H](C)CC)C(=O)N[C@@H](CO)C(=O)N[C@H](C(=O)N[C@@H](Cc1c[nH]c2ccccc12)C(=O)N[C@@H](CO)C(=O)NC(C)(C)C(=O)N[C@@H](CCCNC(=N)N)C(=O)N[C@@H](CCCCN)C(=O)N[C@@H](CCCCNC(C)=O)C(N)=O)[C@@H](C)O)C(=O)O)C(=O)O)C(=O)O [compound 1] (Ac-LEGREKVRAK(Ac)I[Aib][Aib]EGK([Suc-X1])STWS[Aib]RKK(Ac)-NH2)
2.4,99,CCCCCCCCCCCCCCCC(=O)N[C@@H](CCC(=O)N[C@@H](CCC(=O)N[C@@H](CCC(=O)NCCCOCCOCCOCCCNC(=O)CCC(=O)NCCCOCCOCCOCCCNC(=O)CCC(=O)NCCCOCCOCCOCCCNC(=O)CCC(=O)NCCCC[C@H](NC(=O)CNC(=O)[C@H](CCC(=O)O)NC(=O)C(C)(C)NC(=O)C(C)(C)NC(=O)[C@@H](NC(=O)[C@H](CCCCNC(C)=O)NC(=O)[C@H](C)NC(=O)[C@H](CCCNC(=N)N)NC(=O)[C@@H](NC(=O)[C@H](CCCCN)NC(=O)[C@H](CCC(=O)O)NC(=O)[C@H](CCCNC(=N)N)NC(=O)CNC(=O)[C@H](CCC(=O)O)NC(=O)[C@H](CC(C)C)NC(C)=O)C(C)C)[C@@H](C)CC)C(=O)N[C@@H](CO)C(=O)N[C@H](C(=O)N[C@@H](Cc1ccccc1)C(=O)N[C@@H](CO)C(=O)NC(C)(C)C(=O)N[C@@H](CCCNC(=N)N)C(=O)N[C@@H](C)C(=O)N[C@@H](CCCCNC(C)=O)C(N)=O)[C@@H](C)O)C(=O)O)C(=O)O)C(=O)O [compound 2] (Ac-LEGREKVRAK(Ac)I[Aib][Aib]EGK([Suc-X1])STFS[Aib]RAK(Ac)-NH2)
1.86,92,CCCCCCCCCCCCCCCC(=O)N[C@@H](CCC(=O)N[C@@H](CCC(=O)N[C@@H](CCC(=O)NCCOCCOCC(=O)NCCOCCOCC(=O)NCCOCCOCC(=O)NCCOCCOCC(=O)NCCCC[C@H](NC(=O)CNC(=O)[C@H](CCC(=O)O)NC(=O)C(C)(C)NC(=O)C(C)(C)NC(=O)[C@@H](NC(=O)[C@H](CCCCNC(C)=O)NC(=O)[C@H](C)NC(=O)[C@H](CCCNC(=N)N)NC(=O)[C@@H](NC(=O)[C@H](CCCCN)NC(=O)[C@H](CCC(=O)O)NC(=O)[C@H](CCCNC(=N)N)NC(=O)CNC(=O)[C@H](CCC(=O)O)NC(=O)[C@H](CC(C)C)NC(C)=O)C(C)C)[C@@H](C)CC)C(=O)N[C@@H](CO)C(=O)N[C@H](C(=O)N[C@@H](Cc1ccccc1)C(=O)N[C@@H](CO)C(=O)N[C@@](C)(CCCCN)C(=O)N[C@@H](CCCNC(=N)N)C(=O)N[C@@H](C)C(=O)N[C@@H](CCCCNC(C)=O)C(N)=O)[C@@H](C)O)C(=O)O)C(=O)O)C(=O)O [compound 8] (Ac-LEGREKVRAK(Ac)I[Aib][Aib]EGK([AEEA-AEEA-AEEA-AEEA-γGlu-γGlu-γGlu-Palmitoyl])STFS[αMeK]RAK(Ac)-NH2)
